Values of other authors, collected in patent US6929797B2, “Targeted therapeutic delivery of vitamin D compounds” (Bone Care International, Inc., priority 1997, dated 2005).
Read-outs that look alike come from different tables or passages of the source.

Tests used:
[1] = not given; remark: listed apart in the source
[2] = 0.5 μg/day, postmenopausal women

Compound: C=C1/C(=C\C=C2/CCC[C@]3(C)[C@@H]([C@H](C)CCCC(C)(C)O)CC[C@@H]23)C[C@@H](O)C[C@@H]1O [1α,25-dihydroxyvitamin D3]
- toxicity (hypercalcemia and hypercalciuria) (above 0.5 μg/day): frequently resulted in toxicity
- effects on bone mass or mineral content ([1]; dosage levels below 0.5 μg/day): no effects
- intestinal calcium absorption and calcium balance [2]: improved

Compound: C=C1/C(=C\C=C2/CCC[C@]3(C)[C@@H]([C@H](C)CCCC(C)C)CC[C@@H]23)C[C@@H](O)C[C@@H]1O [1α-hydroxyvitamin D3]
- patients in whom toxicity occurs (1 μg/day): approximately 20%
- patients in whom toxicity occurs (2 μg/day): approximately 67%
- efficacy (bone mass or bone mineral content) ([1]; 1 μg/day, Japan, population with low calcium intake): efficacy is found
- bone mass ([1]; Two μg/day, patients exhibiting senile osteoporosis): efficacy in increasing bone mass
